In US11913031B2, “Method to reproduce circadian rhythms on a microfluidic chip” (Yissum Research Development Company of the Hebrew …, priority 2017, dated 2024):

Columns and labels:
human hepatocytes = test: Lipid accumulation in human hepatocytes; type: cell-based
Description: The present inventor uses IR-spectroscopy to track this metabolic signature in real time. Wild type and CRY1/2 knockout hepatocytes are perfused with (1) all hormones and factors (FIGS. 17A-B), or with time-average concentrations of (2) melatonin, (3) cortisol, (4) T3, (5) growth hormone, and (6) average temperature. Signature is analysed by IR-spectroscopy every 30 min for 24 hours. IR-spectra is critically compared to intracellular metabolites quantified by LC-MS/MS, as well as specific quantification of triglycerides and bile acids using commercially available kits (FIGS. 16A-F). […] Mechanism is evaluated by systematically perturbing regulators whose activity changed prior to steatosis.

HeLa cells = test: Acetaminophen loss of mitochondrial respiration repeated in HeLa cells; type: cell-based
liver = settings: Table 4 compound list, toxicological end-point; cited from earlier work
HepG2/C3A cells = type: cell-based
Text: FIGS. 11A-E—FIG. 11A—System schematic. FIG. 11B—Oxygen-quenched decay causes phase shift between the intensity-modulated excitation and emission light. Two-superimposed frequencies were used to screen out background interference. FIG. 11C—Fluorescence image of HepG2/C3A cells and sensor particles after immobilization in a collagen matrix.
Real-time focus independent measurement of oxygen uptake in microfluidic bioreactor: Oxygen uptake is a critical measurement of mitochondrial function and metabolic activity^35, 36. However, electrochemical electrodes require frequent re-calibration, while optical sensors are affected by small changes in focus, cell migration and stage movement, making them unreliable for real time measurements of oxygen uptake. Therefore, the present inventor designed an optical system in which organoids are embedded with nanoprobes containing RuP dye and excited at 532 nm (FIGS. 11A-E). Oxygen is a quencher of RuP phosphorescence, leading to a decrease in decay time. Importantly, decay time is not sensitive to changes in probe concentration or excitation intensity (i.e. cell migration, mechanical movement). To measure in real-time, the present inventor used a novel two-frequency sinusoidal intensity-modulated light, allowing us to filter background interference while measuring phase shift in the emitted light.

E6/E7low 653 hepatocytes = test: Circadian gene expression (RNA sequencing, JTK_CYCLE) after dexamethasone entrainment, line 653; type: cell-based, human; settings: 100 μM (day medium), 24±4 hours period, adjusted p-values less than 0.005
Description: (§1) E6/E7^low Upcyte™ hepatocytes line 422, from a donor, and line 653, from an old donor, were seeded in OSM-free differentiation media as previously described (Levy et al. Nature Biotechnology 2015). Following 5 days of differentiation, cells were synchronized in corticosteroid-free culture medium for 24 hours, followed by high 100 μM Dexamethasone dose (day medium), entraining a circadian cycle. Triplicate cell-lysate and media samples were collected every 4 hours in the following 2 days. RNA was extracted from lysate samples, using NucleoSpin® RNA (Qiagen, Valencia, Calif.) according to manufacturer's direction. RNA were further reverse-transcribed to increase stability of the molecules and tagmented with in-house produced primers containing unique-per-molecule tags along with unique-per-sample tag, using an in-house developed TN5 enzyme. […] Library construction was conducted using Illumina TruSeq RNA Library Prep V2 Kit (Illumina, San Diego, Calif.) according to manufacturer's protocol and sequenced on Illumina NextSeq500 with single-end, 86 bp reads using the High Output V2 Kit. Sequencing reads were filtered to unique reads only and mapped to the UCSC human transcriptome (genome build hg38) using Bowtie 2. Expression levels of all genes were quantified using bedtools. […]

E6/E7low 422 hepatocytes = test: Circadian gene expression (RNA sequencing, JTK_CYCLE) after dexamethasone entrainment, line 422; type: cell-based, human; settings: 100 μM (day medium), 24±4 hours period, adjusted p-values less than 0.005
Description: as §1

E6/E7 hepatocytes = test: Conditional proliferation and EMT of E6/E7 human hepatocytes

For `COc1ccc2[nH]cc(CCNC(C)=O)c2c1` [melatonin, Melatonin], the lipid accumulation (human hepatocytes) was “induce lipid accumulation”.

For `CC(=O)Nc1ccc(O)cc1` [Acetaminophen], the “transient loss of mitochondrial respiration in cells that lack CYP2E1 and 3A4” value (HeLa cells) is listed as “repeated in HeLa cells”, the Toxicity (liver) is listed as “Apoptosis” and the “effect on oxygen uptake over time” value (HepG2/C3A cells) is listed as “immediate, reversible, dose-dependent loss of oxygen uptake followed by a slow, irreversible, dose-independent death”. For the same molecule, the “time at which immediate dose-dependent loss of oxygen uptake concludes” value (HepG2/C3A cells; human) was 60 min and the “time to total cell death (slow dose-independent loss of oxygen uptake)” value (HepG2/C3A cells; human) was 3 to 5 days.

In the case of `CN(C)CCCN1c2ccccc2Sc2ccc(Cl)cc21` [Chlorpromazine], the Toxicity (liver) is listed as “Cholestasis”.

For `C[C@@H]1C[C@H]2[C@@H]3CCC4=CC(=O)C=C[C@]4(C)[C@@]3(F)[C@@H](O)C[C@]2(C)[C@@]1(O)C(=O)CO` [Dexamethasone, 9α-fluoro-11β,17α,21-trihydroxy-16α-methylpregna-1,4-diene-3,20-dione], the “genes with circadian expression pattern” value (E6/E7low 653 hepatocytes) was 41 genes and the “genes with circadian expression pattern” value (E6/E7low 422 hepatocytes) was 267 genes.

In the case of `Cc1c(C)c2c(c(C)c1O)CCC(C)(COc1ccc(CC3SC(=O)NC3=O)cc1)O2` (centres unmarked) [Troglitazone], the Toxicity (liver) is listed as “Cholestasis”.

In the case of `N#CC(=C(/N)Sc1ccccc1N)/C(C#N)=C(\N)Sc1ccccc1N` [U0126], the “Epithelial-to-mesenchymal transition (EMT)” value (E6/E7 hepatocytes) is reported as “blocked” and the “epithelial morphology and cell polarization” value (E6/E7 hepatocytes) is reported as “stabilizing epithelial morphology and cell polarization”.

In the case of `CC(=O)Oc1ccccc1C(=O)O` [Aspirin], the Toxicity (liver) is listed as “Steatosis”.

B1: Oncostatin m (protein, UniProt P13725 26-221, looked up)
Oncostatin-M: AAIGSCSKEYRVLLGQLQKQTDLMQDTSRLLDPYIRIQGLDVPKLREHCRERPGAFPSEETLRGLGRRGFLQTLNATLGCVLHRLADLEQRLPKAQDLERSGLNIEDLEKLQMARPNILGLRNNIYCMAQLLDNSDTAEPTKAGRGASQPPTPTPASDAFQRKLEGCRFLHGYHRFMHSVGRVFSKWGESPNRSRR
For B1, the “doubling time of Jak-STAT3 dependent proliferation” value (E6/E7 hepatocytes; OSM stimulation) was 40 h.
